From patent publication US20230000982A1, “COMPOSITION FOR PREVENTING OR TREATING CANCER, CONTAINING NOVEL TRIFLUOROMETHYL PHENYL PYRAZOLE DERIVATIVE AS ACTIVE INGREDIENT” (KOREA INSTITUTE OF RADIOLOGICAL & MEDICAL SCIENCES, priority 2019, published 2023)

What was measured:
[1] = test system: breast cancer cell lines BT549, MCF7, T47D and MDA MB231; assay: Colonogenic (colony formation) assay; assay type: cell-based, Human; settings: 10 μM, cultured for 14 days; various breast cancer cell lines
Description: (§1) Human-derived tumor cell lines and breast cancer cell lines MCF7 and T47D, BT549, MDA-MB231, and MDA-MB453 was cultured in a DMEM medium (Corning, N.Y., USA), containing 10% fetal bovine serum (FBS; HyClone, South Logan, Utah) and 1% penicillin/streptomycin at 37° C. and 5% CO2 conditions.
Colonogenic analysis was performed to determine whether the selected KRCT-1 could efficiently kill cancer cells. First, cells of various breast cancer cell lines BT549, MCF7, T47D and MDA MB231 (500-1000 cells) were cultured in a 60 mm culture plate, and 24 hours later, 10 μM of the compound was treated, respectively, and cultured for 14 days.

Breast cancer cells MCF7 = assay: Tumorsphere forming assay; assay type: cell-based, Human; settings: cultured for 14 days; various breast cancer cell lines
Description: as §1
In order to determine whether the selected KRCT-1 can effectively reduce the tumorsphere formation in cancer cells, tumorsphere forming assay was performed. Breast cancer cells MCF7 (2500-10000 cells) were suspended in serum-free DMEM/F12 (welGENE), containing 1% penicillin, B-27 (1:50; invitrogen), 20 ng/mL epidermal growth factor (R&D Systems) and 20 ng/mL fibroblasts growth factors (R&D Systems) on low adhesion plates and cultured. After 24 hours had elapsed, the cells were treated with the compound and cultured for 14 days, and then the diameter of the tumorspheres was measured and quantified, which is shown in FIG. 3D.

BT549 cell line = assay: Immunodeficient mouse tumor model (xenograft) transplanted with BT549; assay type: in vivo; settings: 30 mg/kg intraperitoneally twice a week
Description: By subcutaneously implanting a cancer cell line into an immunodeficient mouse tumor model, it was attempted to verify whether the anticancer effect of the compound actually occurs at the in vivo level. After the tumor was formed by implanting the BT549 cell line subcutaneously in the thigh of an immunodeficient mouse, in the case that the size of the tumor reached 50˜100 mm ˜3˜, the compound was intraperitoneally injected at 30 mg/kg twice a week. The tumor volume and the mouse weight were measured 3 times a week for the control group and the KRCT-1 treatment group, respectively. […] Western blotting was performed on the isolated mouse tumor for the tumor growth antigen Ki-67, which is shown B in FIG. 4b.

MCF7 = assay: Annexin V/PI staining FACS apoptosis analysis, MCF7; assay type: cell-based, Human; settings: MCF7, 20 μM, 48 h
Description: (§2) After Annexin V/PI staining, FACS analysis was performed to confirm the cancer cell killing effect. Cancer cell lines MCF7 and BT549 were treated for 48 h in the presence and absence of 20 μM of KRCT-1, and analysis of Annexin V binding was performed using the Annexin V-FITC apoptosis Detection Kit (BD Biosciences, San Jose, Calif., USA) according to the manufacturer's recommended protocol. Briefly, after collecting all cells, including the cell medium, the cells were centrifuged at 1500 rpm for 5 minutes, washed with 1×PBS, resuspended at 1×10^6 cell concentration, and then 100 μl of the cell suspension was added in a 5 ml tube, and 5 μl of Annexin V-FITC and 5 μl of PI were added thereto and cultured in the dark for 15 minutes at RT. 400 μl of 1× binding buffer was added to each tube and samples were analyzed by flow cytometry. As a result, it was confirmed that MCF7 induced about 40%, BT549 induced about 23% cell death.

BT549 = assay: Annexin V/PI staining FACS apoptosis analysis, BT549; assay type: cell-based, Human; settings: BT549, 20 μM, 48 h
Description: as §2

[2] = test system: Breast cancer cell lines BT549, T47D, and MCF7; assay: Western blotting of survivin and apoptosis markers; assay type: cell-based, Human; settings: 0, 2.5, 5, 10, and 20 μM, 24 h
Description: Apoptosis by KRCT-1 was confirmed through Western blotting. After separation of 20 μg of protein by SDS-PAGE electrophoresis and transferred to PVDF membrane, the following specific antibodies were used: rabbit polyclonal antibodies cleaved PARP (Asp214) (#9541) and phospho-Chk2 (Thr68) (#2661; Cell Signaling Technology, MA); rabbit monoclonal antibodies caspase3 (#9664), chk2 (#6334S), survivin (#2808S); mouse monoclonal antibody caspase 9 (551246; BD Pharmingen, Calif., USA). In addition, mouse monoclonal antibody (3-actin (C4; Santa Cruz Biotechnology, Calif., USA) was used as a loading control, washed with 1×PBS/0.1% Tween 20, and HRP-binding secondary antibody and improved chemiluminescence detection system was used to detect the binding protein, and an image of the band was obtained using the Amersham Imager 600 system (GE Healthcare Life Science), which is shown in FIG. 5b.
Breast cancer cell lines BT549, T47D, and MCF7 were treated with 0, 2.5, 5, 10, and 20 μM of KRCT-1 in a dose-dependent manner for 24 h each, and the expression level of survivin essential for the survival of cancer cells and the expression levels of an apoptosis markers, clv-PARP, caspase 9 and caspase 3 were checked. According to the concentration of the treated KRCT-1, the expression levels of survivin and pro-caspase 9 in cancer cells were decreased, and it was confirmed that the truncated PARP and caspase3 increased during apoptosis. Through the above results, it was confirmed that apoptosis was activated due to KRCT-1.

[3] = test system: breast cancer cell lines BT549, T47D and MCF7; assay: Clonogenic assay, combination of KRCT-1 and radiation; assay type: cell-based, Human; settings: 2.5 μM KRCT-1 + 2.5 Gy radiation; compared to DMSO group
Description: A clonogenic assay was performed to confirm the effect of the combination of KRCT-1 and radiation. To perform clonogenic assay, breast cancer cell lines BT549, T47D and MCF7 were treated with 2.5 μM of KRCT-1 compound, and 2.5 Gy radiation was used using Biobeam GM8000 (Gamma-Gamma-Service Medical GmbH, Leipzig, Germany). The experimental technique for the remaining colony formation was performed in the same manner as in the above Example, and was shown in FIG. 6a. In the group treated with KRCT-1, the radiation treatment effect of the two cancer cell lines was significant compared to the group treated with DMSO, confirming that the number of cancer cell colonies decreased.

[4] = test system: breast cancer cell lines BT549, T47D and MCF7; assay: Western blotting, radiation combination effect; assay type: cell-based, Human; settings: 10 μM + 3 Gy radiation, 30 h
Description: In order to confirm the synergistic effect of radiosensitivity of cancer cell lines through treatment with KRCT-1 through Western blotting experiments, 10 μM of KRCT-1 compound was treated in breast cancer cell lines BT549, T47D and MCF7, and Biobeam GM8000 (Gamma-Gamma-Service Medical GmbH, Leipzig, Germany) was used to culture for 30 h after treatment with 3 Gy radiation. For Western blotting, 20 μg of protein was isolated through SDS-PAGE electrophoresis and transferred to a PVDF membrane. The following specific antibodies were used: rabbit polyclonal antibody phospho-Chk2 (Thr68) (#2661; Cell Signaling Technology, MA); rabbit monoclonal antibody chk2 (#6334S) were used. The remaining conditions of Western blotting were performed in the same manner as in the above Example. […] Through the above results, it was confirmed that apoptosis of cancer cells appeared effectively.

MCF7 cells = assay: γ-H2AX foci experiment (DNA damage) with radiation; assay type: cell-based, Human; settings: 20 μM for 24 h + 2 Gy radiation, fixed at 1 h; compared to each control group
Description: To determine how KRCT-1 affects DNA damage induced by radiation, a γ-H2AX foci experiment was performed. In the case that single-stranded or double-stranded DNA is cleaved by various DNA damaging agents including radiation, γ-H2AX phosphorylation occurs and nuclear foci are generated in the cell nucleus. Using this as an index, the effect of the combination according to DNA damage was evaluated. After culturing 2.5×10^4 MCF7 cells in a 24-well plate for 48 h, KRCT-1 20 μM was treated for 24 h, and the cells were fixed at 1 h after irradiation with 2 Gy of radiation. Then, after washing with phosphate buffered saline for permeation, 4% paraformaldehyde and 0.2% Triton-X were added and reacted for 10 min each. After 1 h pretreatment with 5% fetal bovine serum, 1:100 dilution of γ-H2AX (05-656; EMD Millipore Corp., MA, USA) antibody to phosphorylated H2AX for was treated for 16 h, and it was washed 3 times with 0.1% TritonX-100/phosphate buffered saline solution (Tritonx-100/PBS). Alexa488-conjugated secondary antibody (AP132JA4, Invitrogen) was reacted for 2 h at room temperature and labeled, and phosphorylated γ-H2AX foci were photographed and analyzed with IN Cell Analyzer 6000 (GE Healthcare Life Science). […] Taken together, in cancer cells, it was confirmed that KRCT-1 is a material that can be effectively used as a radiosensitizer.

Trk-A kinase [5] = molecular target: T1, Trk-A kinase (Homo sapiens, UniProt P04629); assay: Western blotting of Trk-A downstream signaling (phosphorylated ERK, phosphorylated STAT3) in cancer cell lines; assay type: cell-based; settings: 2.5, 5, 10, 20 μM; FIG. 7c
T1 sequence (P04629 33-796): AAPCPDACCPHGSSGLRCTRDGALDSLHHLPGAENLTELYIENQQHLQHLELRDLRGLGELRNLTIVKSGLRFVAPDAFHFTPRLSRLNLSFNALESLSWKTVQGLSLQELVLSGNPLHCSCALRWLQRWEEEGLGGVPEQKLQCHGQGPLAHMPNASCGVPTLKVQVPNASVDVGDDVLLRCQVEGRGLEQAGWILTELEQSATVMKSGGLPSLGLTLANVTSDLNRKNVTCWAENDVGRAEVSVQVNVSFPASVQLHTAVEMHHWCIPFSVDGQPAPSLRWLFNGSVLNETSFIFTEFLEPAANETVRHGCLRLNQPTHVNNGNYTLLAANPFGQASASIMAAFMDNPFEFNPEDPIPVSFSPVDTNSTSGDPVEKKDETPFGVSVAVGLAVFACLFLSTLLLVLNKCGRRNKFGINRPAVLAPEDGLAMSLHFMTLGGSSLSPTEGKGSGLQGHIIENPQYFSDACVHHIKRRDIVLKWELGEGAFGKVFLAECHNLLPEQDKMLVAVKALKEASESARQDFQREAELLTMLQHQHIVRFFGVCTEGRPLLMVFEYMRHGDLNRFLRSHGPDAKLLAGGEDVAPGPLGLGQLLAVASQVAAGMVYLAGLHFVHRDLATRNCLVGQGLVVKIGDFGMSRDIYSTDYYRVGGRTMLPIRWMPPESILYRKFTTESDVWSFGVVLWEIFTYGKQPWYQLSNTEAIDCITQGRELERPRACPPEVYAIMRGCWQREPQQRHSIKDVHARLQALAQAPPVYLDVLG
Description: In cancer cell lines, it was confirmed whether KRCT-1 inhibits the activity of Trk-A kinase to inhibit downstream signaling. In the case that Trk-A is activated by ligand, the MEK/ERK and STAT3 signaling pathways in the cell are activated. Using this as an indicator, changes in phosphorylated ERK and phosphorylated STAT3 were confirmed in the case that cancer cell lines were treated with KRCT-1 concentrations (2.5, 5, 10, 20 μM). For Western blotting, 20 μg of protein was isolated through SDS-PAGE electrophoresis and transferred to PVDF membrane. The following specific antibodies were used: rabbit polyclonal antibody phospho-STAT3 (Tyr705) (ab76315; Abcam, UK), mouse monoclonal antibodies phospho-ERK (Thr202/Tyr204) (sc-514302; Santa Cruz Biotechnology), ERK (sc-7383; Santa Cruz Biotechnology), and STAT3 (sc8019; Santa Cruz Biotechnology) were used. The remaining conditions of Western blotting were performed in the same manner as in the above Example.

Trk-A kinase [6] = molecular target: T1, Trk-A kinase; assay: In vitro kinase assay of Trk-A; assay type: biochemical; design: purchased Eurofins Pharma Discovery Services (commissioned via Goma Biotech); settings: serially diluted 3-fold from 100 μM; FIG. 7b
Description: To measure the selective reactivity of KRCT-1 to a specific kinase, in vitro kinase assay profiling was commissioned to Goma Biotech (Seoul, Korea), and the enzyme reaction experiment was performed at Eurofins Pharma Discovery Services (Scotland, UK). For kinase profiling, 104 kinase series and 10 μM KRCT-1 were used in the reaction as a broad oncology panel. To obtain the IC50 kinase assay of Trk-A, KRCT-1 serially diluted 3-fold from 100 μM was used.

Structure (SMILES): CN(C)S(=O)(=O)Nc1cccc(-c2cnn(-c3ccc(C(F)(F)F)cc3)c2)c1 [KRCT-1, N,N-dimethyl-N′-(3-(1-(4-(trifluoromethyl)phenyl)-1H-pyrazol-4-yl)phenyl)azanesulfonamide]
- number and size of cell colonies [1]: significantly reduced
- diameter of cancer cell tumorspheres (Breast cancer cells MCF7): significantly reduced
- expression of Ki-67 in isolated mouse tumor (Western blotting) (BT549 cell line): significantly reduced
- tumor volume and size (BT549 cell line; 4 weeks after transplantation, vs control group): smaller tumor volume and size than the control group
- body weight of immunodeficient mice (BT549 cell line; weight measured 3 times a week): not significantly changed
- cell death (Annexin V/PI FACS) (MCF7): about 40%
- cell death (Annexin V/PI FACS) (BT549): about 23%
- truncated PARP [2]: increased
- truncated caspase3 [2]: increased
- expression level of pro-caspase 9 ([2]; according to concentration): decreased
- expression level of survivin ([2]; according to concentration): decreased
- number of cancer cell colonies after radiation [3]: decreased
- expression level of phosphorylated Chk2 after radiation treatment [4]: increased
- expression level of survivin after radiation treatment [4]: decreased
- DNA damage (phosphorylated γ-H2AX foci) (MCF7 cells): DNA damage occurred in relatively many cancer cells
- downstream signaling of Trk-A kinase in cancer cells (Trk-A kinase [5]): inhibited
- in vitro Trk-A kinase activity (Trk-A kinase [6]): inhibition
